Where a SMILES comes first, the peptide text is derived from it. Bridges are numbered along the chain shown (N, C = ends). Where no end group is shown, it is not given here.
Key:
Design in all cases: purchased Sigma
[1] = target: T1, rabbit albumin (Oryctolagus cuniculus, UniProt P49065); assay: Direct Binding ELISA, AB.Fab variants on immobilized rabbit albumin; details: average and SD of at least 3 determinations
Procedure: (§1) Mouse, rat, or rabbit albumin (Sigma, St. Louis, Mo.) were immobilized onto NUNC Maxisorp™ 96-well plates at 2 ug/ml overnight at 4° C. […] AB.Fab variants were serially diluted in binding buffer and added at 100 μl per well to the immobilized albumin for 30 minutes at 25° C. Unbound AB.Fab variant was removed by washing wells with 0.05% PBS/Tween® 20 and bound AB.Fab variant was detected with goat anti-human Fab′2-HRP for 1 hour at 25° C. Bound HRP was measured with a solution of tetramethylbenzidine (TMB)/H202. After 15 minutes, the reaction was quenched by the addition of 1M phosphoric acid.
(§2) Initially we explored binding of the AB.Fab variants to immobilized albumin using a Direct Binding ELISA.

[2] = target: T2, rat albumin (Rattus norvegicus, UniProt P02770); assay: Direct Binding ELISA, AB.Fab variants on immobilized rat albumin; details: average and SD of at least 3 determinations
Procedure: as §1, §2

[3] = target: T1, rabbit albumin; assay: SA08b binding assay (peptide competition ELISA), rabbit albumin; details: for effect on SA08b peptide binding to rabbit albumin: concentrations of up to 100 μM, data not shown; for improvement in IC50 relative to core sequence of about 10 amino acids: rabbit albumin
Source text: (§3) Plates were blocked as described above.
(§4) Peptides corresponding to identified phage sequences were synthesized and their affinity for rat, rabbit or mouse albumin measured using the SA08b binding assay.

[4] = target: T2, rat albumin; assay: SA08b binding assay (peptide competition ELISA), rat albumin; details: concentrations of up to 100 μM; data not shown
Source text: as §3, §4

T1 sequence (P49065 25-608): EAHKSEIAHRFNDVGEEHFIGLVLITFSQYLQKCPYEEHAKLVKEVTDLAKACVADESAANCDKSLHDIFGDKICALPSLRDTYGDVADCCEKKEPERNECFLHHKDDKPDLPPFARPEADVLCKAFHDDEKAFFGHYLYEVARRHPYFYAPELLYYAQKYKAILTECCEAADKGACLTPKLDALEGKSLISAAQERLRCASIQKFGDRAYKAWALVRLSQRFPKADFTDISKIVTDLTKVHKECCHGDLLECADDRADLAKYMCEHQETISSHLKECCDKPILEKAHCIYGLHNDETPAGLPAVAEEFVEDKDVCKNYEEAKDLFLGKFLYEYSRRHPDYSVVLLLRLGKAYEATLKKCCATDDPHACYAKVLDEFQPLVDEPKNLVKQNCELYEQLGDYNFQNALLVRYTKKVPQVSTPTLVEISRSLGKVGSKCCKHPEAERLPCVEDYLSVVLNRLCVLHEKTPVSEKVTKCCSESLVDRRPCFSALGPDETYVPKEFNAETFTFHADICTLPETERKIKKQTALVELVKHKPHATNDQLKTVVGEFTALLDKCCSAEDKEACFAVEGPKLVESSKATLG
T2 sequence (P02770 25-608): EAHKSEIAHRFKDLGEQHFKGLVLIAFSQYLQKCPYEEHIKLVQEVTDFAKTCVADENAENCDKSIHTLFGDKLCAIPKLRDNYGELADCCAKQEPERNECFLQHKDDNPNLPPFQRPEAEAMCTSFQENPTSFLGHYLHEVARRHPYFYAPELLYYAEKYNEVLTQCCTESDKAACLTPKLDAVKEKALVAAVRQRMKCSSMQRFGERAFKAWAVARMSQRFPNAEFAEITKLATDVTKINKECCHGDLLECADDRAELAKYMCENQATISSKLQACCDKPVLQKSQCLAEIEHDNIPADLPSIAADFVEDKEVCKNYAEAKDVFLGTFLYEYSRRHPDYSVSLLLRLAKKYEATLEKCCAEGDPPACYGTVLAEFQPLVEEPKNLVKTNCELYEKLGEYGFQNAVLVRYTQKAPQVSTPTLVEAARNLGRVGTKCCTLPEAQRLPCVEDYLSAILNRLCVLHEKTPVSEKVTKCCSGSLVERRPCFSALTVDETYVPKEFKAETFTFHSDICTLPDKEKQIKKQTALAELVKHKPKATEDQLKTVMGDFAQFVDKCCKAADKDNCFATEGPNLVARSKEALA

Question: Which EC50 [1] does the source give for “4D5-H4: AB.Fab variant of Fab4D5 with shortened albumin-binding peptide on heavy chain, no GGGS linker (Table 12) (DICLPRWGCLWED; disulfide 3-9 (inferred); also: part of Fab heavy chain)” here?
Answer: The EC50 was 500 ± 50 nM.

Question: How did the EC50 [1] turn out when “4D5-H8: AB.Fab variant of Fab4D5 with shortened albumin-binding peptide on heavy chain, no GGGS linker (Table 12) (IEDICLPRWGCLWE; disulfide 5-11 (inferred); also: part of Fab heavy chain)” was run?
Answer: The EC50 was 500 ± 50 nM.

Question: What does the source list for “4D5-H10: AB.Fab variant made by deletion in 4D5-H4 (Table 12) (DICLPRWGCLW; disulfide 3-9 (inferred); also: part of Fab heavy chain)”?
Answer: EC50 [1]: > 2000 nM; EC50 [2]: 8 ± 0.003 nM

Question: What does the source list for `[Cl][Cu][Cl]` [CuCl2, reference compound]?
Answer: effect on SA08b peptide binding to rabbit albumin [3]: no effect; effect on SA08b peptide binding to rat albumin [4]: no effect

Question: For `N[C@@H](Cc1c[nH]c2ccccc12)C(=O)O` [L-tryptophan, reference compound], which “effect on SA08b peptide binding to rabbit albumin” value [3] is on record?
Answer: Its value is “no effect”.

Question: And the “effect on SA08b peptide binding to rat albumin” value [4]?
Answer: The value was “no effect”.

Question: `CC[C@H](C)[C@H](NC(=O)[C@H](CC(C)C)NC(=O)[C@H](CCCNC(=N)N)NC(C)=O)C(=O)N[C@@H](CCC(=O)O)C(=O)N[C@@H](CC(=O)O)C(=O)N[C@H](C(=O)N[C@H]1CSSC[C@@H](C(=O)N[C@@H](CC(C)C)C(=O)N[C@@H](Cc2c[nH]c3ccccc23)C(=O)N[C@@H](CCC(=O)O)C(=O)N[C@@H](CC(=O)O)C(N)=O)NC(=O)CNC(=O)[C@H](Cc2c[nH]c3ccccc23)NC(=O)[C@H](CCCNC(=N)N)NC(=O)[C@@H]2CCCN2C(=O)[C@H](CC(C)C)NC1=O)[C@@H](C)CC` [SA22] (Ac-RLIEDICLPRWGCLWED-NH2; disulfide 7-13) was tested. Which “improvement in IC50 relative to core sequence of about 10 amino acids” value [3] did it give?
Answer: Its value is 60 fold.

Question: How did the “improvement in IC50 relative to core sequence of about 10 amino acids” value [3] turn out when `CC[C@H](C)[C@H](NC(=O)[C@H](CC(=O)O)NC(C)=O)C(=O)N[C@H]1CSSC[C@@H](C(=O)N[C@@H](CC(C)C)C(=O)N[C@@H](Cc2c[nH]c3ccccc23)C(=O)N[C@@H](CCC(=O)O)C(=O)N[C@@H](CC(=O)O)C(N)=O)NC(=O)CNC(=O)[C@H](Cc2c[nH]c3ccccc23)NC(=O)[C@H](CCCNC(=N)N)NC(=O)[C@@H]2CCCN2C(=O)[C@H](CC(C)C)NC1=O` [SA26, Ac DICLPRWGCLWED NH2] (Ac-DICLPRWGCLWED-NH2; disulfide 3-9) was run?
Answer: The value was “about 8.6 fold”.

Question: How did the “improvement in IC50 relative to core sequence of about 10 amino acids” value [3] turn out when `CC[C@H](C)[C@H](NC(=O)[C@H](CC(C)C)NC(=O)[C@H](CCCNC(=N)N)NC(C)=O)C(=O)N[C@@H](CCC(=O)O)C(=O)N[C@@H](CC(=O)O)C(=O)N[C@H](C(=O)N[C@H]1CSSC[C@@H](C(=O)N[C@@H](CC(C)C)C(N)=O)NC(=O)CNC(=O)[C@H](Cc2c[nH]c3ccccc23)NC(=O)[C@H](CCCNC(=N)N)NC(=O)[C@@H]2CCCN2C(=O)[C@H](CC(C)C)NC1=O)[C@@H](C)CC` [SA33] (Ac-RLIEDICLPRWGCL-NH2; disulfide 7-13) was run?
Answer: The value was “approximately 6 fold”.

Question: `CC[C@H](C)[C@H](NC(=O)[C@H](CC(C)C)NC(=O)[C@H](CCCNC(=N)N)NC(C)=O)C(=O)N[C@@H](CCC(=O)O)C(=O)N[C@@H](CC(=O)O)C(=O)N[C@H](C(=O)N[C@H]1CSSC[C@@H](C(N)=O)NC(=O)CNC(=O)[C@H](Cc2c[nH]c3ccccc23)NC(=O)[C@H](CCCNC(=N)N)NC(=O)[C@@H]2CCCN2C(=O)[C@H](CC(C)C)NC1=O)[C@@H](C)CC` [SA35] (Ac-RLIEDICLPRWGC-NH2; disulfide 7-13) was tested. Which IC50 [3] did it give?
Answer: The IC50 was over 250000 nM.

— patent publication US20140294863A1, “SERUM ALBUMIN BINDING PEPTIDES FOR TUMOR TARGETING” (GENENTECH, INC., priority 2002, published 2014)
